pIC50: −log10 of the molar value.
Experiments:
human CD73 = target: T1, human CD73 (Homo sapiens, UniProt P21589); test: Inhibitor activity against CD73 in cell based assay (CD73 expressing CHO-K1 cells); conditions: CHO-K1 cells expressing human CD73, 150 μM AMP, 4 hours of incubation; read-out: CHO-K1 CELL VARIANT: CD73 IC50
T1 construct: expressed in transfected cells
T1 sequence (P21589 27-549): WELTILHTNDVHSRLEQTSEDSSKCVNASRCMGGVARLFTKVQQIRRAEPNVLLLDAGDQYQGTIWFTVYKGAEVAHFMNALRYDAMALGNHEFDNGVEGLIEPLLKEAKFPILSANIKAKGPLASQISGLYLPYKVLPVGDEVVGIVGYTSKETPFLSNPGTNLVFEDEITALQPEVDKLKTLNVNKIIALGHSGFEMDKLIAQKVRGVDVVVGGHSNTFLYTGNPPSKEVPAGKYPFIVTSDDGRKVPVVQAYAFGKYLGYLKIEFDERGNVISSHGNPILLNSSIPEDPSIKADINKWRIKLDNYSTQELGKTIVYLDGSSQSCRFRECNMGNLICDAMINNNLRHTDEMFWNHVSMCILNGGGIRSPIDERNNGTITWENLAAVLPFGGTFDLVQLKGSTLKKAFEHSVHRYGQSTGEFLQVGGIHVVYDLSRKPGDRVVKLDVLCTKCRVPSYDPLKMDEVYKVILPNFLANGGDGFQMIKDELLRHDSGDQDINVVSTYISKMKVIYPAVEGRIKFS
Method in brief: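 Stably transfected CHO-K1 cells expressing human CD73 (1×10^4/well) incubated 4 h with compound (8-point 1:3 titration, top 10 μM final, 0.2% DMSO) and 150 μM AMP. Residual AMP in supernatant measured by CellTiter-Glo luminescence with 1 μM ATP after 30 min at room temperature; IC50 by nonlinear regression of percent inhibition vs high/low controls.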

[1] = target: T2, Human CD73 (amino acid residues 27-549) (Homo sapiens, UniProt P21589); test: CD73 enzymatic assay (luciferase-based indirect assay, CellTiter-Glo); type: biochemical; conditions: 0.4 nM CD73, 150 μM AMP, 1 hour at room temperature
T2 construct: Human CD73 (amino acid residues 27-549); His tag (N); made in house; host or cells: E. coli
T2 sequence (P21589 27-549): T1 sequence (P21589 27-549)
Method in brief: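 His-tagged human CD73 (27-549) from E. coli, 0.4 nM, with 150 μM AMP in 50 mM HEPES pH 7.4, 0.01% Tween 20; 1 h at room temperature. AMP remaining read by CellTiter-Glo 2.0 luminescence with 1 μM final ATP after 30 min. IC50 from nonlinear regression of % inhibition.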

Row | Compound | pIC50 (human CD73) | pIC50 [1]
1 | O=CN1CCC(CNC(=O)O[C@@H]2CCN(c3cn[nH]c(=O)c3Cl)C2)CC1 [P-0242, (R)-1-(5-chloro-6-oxo-1,6-dihydropyridazin-4-yl)pyrrolidin-3-yl ((1-formylpiperidin-4-yl)methyl)carbamate] | 5.00 to 9.00 | 5.00 to 9.00
2 | O=C(N[C@@H]1CC[C@H](NC(=O)c2ccccc2)C1)O[C@@H]1CCN(c2cn[nH]c(=O)c2Cl)C1 [P-0243, (R)-1-(5-chloro-6-oxo-1,6-dihydropyridazin-4-yl)pyrrolidin-3-yl ((1R,3S)-3-benzamidocyclopentyl) carbamate] | 5.00 to 9.00 | 5.00 to 9.00
3 | COC(=O)Cn1ncc(N2CC[C@@H](OC(=O)NC3CCC(F)(F)CC3)C2)c(Cl)c1=O [P-0244, methyl (R)-2-(5-chloro-4-(3-(((4,4-difluorocyclohexyl)carbamoyl)oxy)pyrrolidin-1-yl)-6-oxopyridazin-1(6H)-yl)acetate] | 4.00 to 5.00 | 5.00 to 9.00
4 | COCCn1ncc(N2CC[C@@H](OC(=O)NC3CCC(F)(F)CC3)C2)c(Cl)c1=O [P-0245, (R)-1-(5-chloro-1-(2-methoxyethyl)-6-oxo-1,6-dihydropyridazin-4-yl)pyrrolidin-3-yl (4,4-difluorocyclohexyl)carbamate] | 4.00 to 5.00 | 5.00 to 9.00
5 | O=C(NC1CCC(F)(F)CC1)O[C@@H]1CCN(c2cnn(CC(O)CO)c(=O)c2Cl)C1 (stereo partly drawn) [P-0246, (3R)-1-(5-chloro-1-(2,3-dihydroxypropyl)-6-oxo-1,6-dihydropyridazin-4-yl)pyrrolidin-3-yl (4,4-difluorocyclohexyl)carbamate] | 5.00 to 9.00 | 5.00 to 9.00
6 | N#Cc1ccc(S(=O)(=O)N[C@H]2CC[C@H](NC(=O)O[C@@H]3CCN(c4cn[nH]c(=O)c4Cl)C3)CC2)cc1 [P-0248, (R)-1-(5-chloro-6-oxo-1,6-dihydropyridazin-4-yl)pyrrolidin-3-yl ((1r,4R)-4-((4-cyanophenyl)sulfonamido)cyclohexyl)carbamate] | 5.00 to 9.00 | 5.00 to 9.00
7 | Cc1ccccc1S(=O)(=O)N[C@H]1CC[C@H](NC(=O)O[C@@H]2CCN(c3cn[nH]c(=O)c3Cl)C2)CC1 [P-0250, (R)-1-(5-chloro-6-oxo-1,6-dihydropyridazin-4-yl)pyrrolidin-3-yl ((1r,4R)-4-((2-methylphenyl)sulfonamido)cyclohexyl)carbamate] | 5.00 to 9.00 | 5.00 to 9.00
8 | COc1ccc(S(=O)(=O)N[C@H]2CC[C@H](NC(=O)O[C@@H]3CCN(c4cn[nH]c(=O)c4Cl)C3)CC2)cc1 [P-0251, (R)-1-(5-chloro-6-oxo-1,6-dihydropyridazin-4-yl)pyrrolidin-3-yl ((1r,4R)-4-((4-methoxyphenyl)sulfonamido)cyclohexyl)carbamate] | 5.00 to 9.00 | 5.00 to 9.00
9 | COc1ccc(S(=O)(=O)N[C@H]2CC[C@H](NC(=O)O[C@@H]3CCN(c4cn[nH]c(=O)c4Cl)C3)CC2)cn1 [P-0252, (R)-1-(5-chloro-6-oxo-1,6-dihydropyridazin-4-yl)pyrrolidin-3-yl ((1r,4R)-4-((6-methoxypyridine)-3-sulfonamido)cyclohexyl) carbamate] | 5.00 to 9.00 | 5.00 to 9.00
10 | O=C(N[C@H]1CC[C@H](NS(=O)(=O)c2ccc(C(F)(F)F)cc2)CC1)O[C@@H]1CCN(c2cn[nH]c(=O)c2Cl)C1 [P-0254, (R)-1-(5-chloro-6-oxo-1,6-dihydropyridazin-4-yl)pyrrolidin-3-yl ((1r,4R)-4-((4-(trifluoromethyl)phenyl)sulfonamido)cyclohexyl)carbamate] | 5.00 to 9.00 | 5.00 to 9.00
11 | N#Cc1ccc(C(=O)N[C@H]2CC[C@H](NC(=O)O[C@@H]3CCN(c4cn[nH]c(=O)c4Cl)C3)CC2)cc1 [P-0261, (R)-1-(5-chloro-6-oxo-1,6-dihydropyridazin-4-yl)pyrrolidin-3-yl ((1r,4R)-4-(4-cyanobenzamido)cyclohexyl) carbamate] | 5.00 to 9.00 | 5.00 to 9.00
12 | CC(C)(C)C(=O)N[C@H]1CC[C@H](NC(=O)O[C@@H]2CCN(c3cn[nH]c(=O)c3Cl)C2)CC1 [P-0262, (R)-1-(5-chloro-6-oxo-1,6-dihydropyridazin-4-yl)pyrrolidin-3-yl ((1r,4R)-4-pivalamidocyclohexyl) carbamate] | 5.00 to 9.00 | 5.00 to 9.00

More lines, now with the values ahead:

Row | pIC50 (human CD73) | pIC50 [1] | Compound
13 | 5.00 to 9.00 | 5.00 to 9.00 | O=C(NCC1CCNCC1)O[C@@H]1CCN(c2cn[nH]c(=O)c2Cl)C1 [P-0240, (R)-1-(5-chloro-6-oxo-1,6-dihydropyridazin-4-yl)pyrrolidin-3-yl (piperidin-4-ylmethyl)carbamate]
14 | 5.00 to 9.00 | 5.00 to 9.00 | CC(=O)N1CCC(CNC(=O)O[C@@H]2CCN(c3cn[nH]c(=O)c3Cl)C2)CC1 [P-0241, (R)-1-(5-chloro-6-oxo-1,6-dihydropyridazin-4-yl)pyrrolidin-3-yl ((1-acetylpiperidin-4-yl)methyl)carbamate]
15 | 5.00 to 9.00 | 5.00 to 9.00 | CCS(=O)(=O)N[C@H]1CC[C@H](NC(=O)O[C@@H]2CCN(c3cn[nH]c(=O)c3Cl)C2)CC1 [P-0247, (R)-1-(5-chloro-6-oxo-1,6-dihydropyridazin-4-yl)pyrrolidin-3-yl ((1r,4R)-4-(ethylsulfonamido)cyclohexyl) carbamate]
16 | 5.00 to 9.00 | 5.00 to 9.00 | Cc1cccc(S(=O)(=O)N[C@H]2CC[C@H](NC(=O)O[C@@H]3CCN(c4cn[nH]c(=O)c4Cl)C3)CC2)c1 [P-0249, (R)-1-(5-chloro-6-oxo-1,6-dihydropyridazin-4-yl)pyrrolidin-3-yl ((1r,4R)-4-((3-methylphenyl)sulfonamido)cyclohexyl)carbamate]
17 | 5.00 to 9.00 | 5.00 to 9.00 | O=C(N[C@H]1CC[C@H](NS(=O)(=O)c2ccc(C(F)(F)F)nc2)CC1)O[C@@H]1CCN(c2cn[nH]c(=O)c2Cl)C1 [P-0253, (R)-1-(5-chloro-6-oxo-1,6-dihydropyridazin-4-yl)pyrrolidin-3-yl ((1r,4R)-4-((6-(trifluoromethyl)pyridine)-3-sulfonamido)cyclohexyl) carbamate]
18 | 5.00 to 9.00 | 5.00 to 9.00 | Cn1cc(S(=O)(=O)N[C@H]2CC[C@H](NC(=O)O[C@@H]3CCN(c4cn[nH]c(=O)c4Cl)C3)CC2)cn1 [P-0255, (R)-1-(5-chloro-6-oxo-1,6-dihydropyridazin-4-yl)pyrrolidin-3-yl ((1r,4R)-4-((1-methyl-1H-pyrazole)-4-sulfonamido)cyclohexyl) carbamate]
19 | 5.00 to 9.00 | 5.00 to 9.00 | O=C(N[C@H]1CC[C@H](NC(=O)c2cccnc2)CC1)O[C@@H]1CCN(c2cn[nH]c(=O)c2Cl)C1 [P-0256, (R)-1-(5-chloro-6-oxo-1,6-dihydropyridazin-4-yl)pyrrolidin-3-yl ((1r,4R)-4-(nicotinamido)cyclohexyl) carbamate]
20 | 5.00 to 9.00 | 5.00 to 9.00 | O=C(N[C@H]1CC[C@H](NC(=O)C2CC2)CC1)O[C@@H]1CCN(c2cn[nH]c(=O)c2Cl)C1 [P-0257, (R)-1-(5-chloro-6-oxo-1,6-dihydropyridazin-4-yl)pyrrolidin-3-yl ((1r,4R)-4-(cyclopropanecarboxamido)cyclohexyl)carbamate]
21 | 5.00 to 9.00 | 5.00 to 9.00 | O=C(N[C@H]1CC[C@H](NC(=O)C2CCC2)CC1)O[C@@H]1CCN(c2cn[nH]c(=O)c2Cl)C1 [P-0258, (R)-1-(5-chloro-6-oxo-1,6-dihydropyridazin-4-yl)pyrrolidin-3-yl ((1r,4R)-4-(cyclobutanecarboxamido)cyclohexyl)carbamate]
22 | 5.00 to 9.00 | 5.00 to 9.00 | O=C(N[C@H]1CC[C@H](NC(=O)C2CCCC2)CC1)O[C@@H]1CCN(c2cn[nH]c(=O)c2Cl)C1 [P-0259, (R)-1-(5-chloro-6-oxo-1,6-dihydropyridazin-4-yl)pyrrolidin-3-yl ((1r,4R)-4-(cyclopentanecarboxamido)cyclohexyl)carbamate]
23 | 5.00 to 9.00 | 5.00 to 9.00 | O=C(N[C@H]1CC[C@H](NC(=O)c2ccccn2)CC1)O[C@@H]1CCN(c2cn[nH]c(=O)c2Cl)C1 [P-0260, (R)-1-(5-chloro-6-oxo-1,6-dihydropyridazin-4-yl)pyrrolidin-3-yl ((1r,4R)-4-(picolinamido)cyclohexyl) carbamate]
24 | 4.00 to 5.00 | 5.00 to 9.00 | CC(C)C(=O)N[C@H]1CC[C@H](NC(=O)O[C@@H]2CCN(c3cn[nH]c(=O)c3Cl)C2)CC1 [P-0263]
25 | 5.00 to 9.00 | 5.00 to 9.00 | O=C(N[C@H]1CC[C@H](NC(=O)c2ccncc2)CC1)O[C@@H]1CCN(c2cn[nH]c(=O)c2Cl)C1 [P-0264, (R)-1-(5-chloro-6-oxo-1,6-dihydropyridazin-4-yl)pyrrolidin-3-yl ((1r,4R)-4-(isonicotinamido)cyclohexyl) carbamate]
